Test [1] can be described thus: NIH-3T3 fibroblast cytotoxicity, dose response, cytotoxicity control, cell-based, fluorescence, Alamar Blue, secondary assay (AID 2327).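 Further: NIH-3T3 mouse fibroblasts cultured with fluconazole at 8 µg/mL.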 Format: functional. On the technique in general: Resazurin is reduced to fluorescent resorufin, in cell work by metabolically active cells.
Test [2] can be described thus: cells. It counts as functional, cell-based.
Test [3] concerns the target Heat shock protein HSP 90-alpha (Homo sapiens, UniProt P07900). Format: functional, organism-based.
In test [4] the target is T1, Heat shock factor protein 1 (Mus musculus, UniProt P38532).
T1 sequence (P38532 whole entry): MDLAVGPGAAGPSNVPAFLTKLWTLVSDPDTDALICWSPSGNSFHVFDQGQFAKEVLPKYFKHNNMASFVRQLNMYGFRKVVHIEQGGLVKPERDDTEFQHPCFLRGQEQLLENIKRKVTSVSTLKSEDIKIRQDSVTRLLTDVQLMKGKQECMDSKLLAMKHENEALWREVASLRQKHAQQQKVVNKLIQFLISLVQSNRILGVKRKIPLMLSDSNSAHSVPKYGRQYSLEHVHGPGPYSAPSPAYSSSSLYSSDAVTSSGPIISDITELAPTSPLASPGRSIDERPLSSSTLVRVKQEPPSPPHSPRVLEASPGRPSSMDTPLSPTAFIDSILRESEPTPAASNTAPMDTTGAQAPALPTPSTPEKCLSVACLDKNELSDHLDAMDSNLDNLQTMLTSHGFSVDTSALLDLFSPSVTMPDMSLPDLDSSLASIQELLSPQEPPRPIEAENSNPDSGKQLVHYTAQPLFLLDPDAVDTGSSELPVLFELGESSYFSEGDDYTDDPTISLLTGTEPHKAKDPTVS
Kind of test: inhibition of MG132-induced HSE-luciferase signal, confirmation, cell-based, NIH3T3, luminescence, dose retest (AID 2382).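 Further: NIH3T3 fibroblasts with HSF1-driven luciferase reporter stressed by proteasome inhibitor MG132; luminescence from HSF1-driven luciferase expression after 8 hours of MG132 stress.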 Format: functional.

In the next test the test system is INS1. Description: beta cell apoptosis inhibitors, cytokine rescue, dose response, luminescence, retest (AID 449756).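 Further: cell death triggered by IL-1 beta plus TNF-alpha plus IFN-gamma mixture; protective hits raise ATP signal compared with cytokine alone wells.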 Format: functional, cell-based. The note with it: Rattus norvegicus.
Test [5] in a line: C. albicans growth with fluconazole, confirmation, fluorescence, retest (AID 2467). Format: functional, cell-based.
Test [6] can be described thus: cells. Format: functional, cell-based. This is another data set of the same source.
Test [7] can be described thus: cytotoxicity in NIH3T3 fibroblasts, dose response, cytotoxicity control for HSP40 inhibitor project, cell-based, CellTiter-Glo luminescence, cherry-pick, set 2 (AID 624265). Format: functional.
The target of the next test is Steroidogenic factor 1 (Homo sapiens, UniProt Q13285). Kind of test: Counterscreen for inverse agonists of the liver receptor homolog-1 (LRH-1; NR5A2): Luminescence-based cell-based high throughput dose response assay to identify inverse agonists of the Steroidogenic Factor 1 Nuclear Receptor (SF1; NR5A1). Format: functional. Background: Counterscreens check selectivity or assay interference.

Test [8] has as its target Mitogen-activated protein kinase 10 (Homo sapiens, UniProt P53779). Description: Dose response biochemical screening assay for inhibitors of c-Jun N-Terminal Kinase 3 (JNK3). [Related pubchem assays: 746 ].
Test [9] concerns the target Nuclear receptor subfamily 5 group A member 2 (Homo sapiens, UniProt O00482). Format: functional, cell-based.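 Further: HEK293T cells transfected with LRH-1 and a StAR promoter luciferase reporter; potency for inhibitors that lower LRH-1 driven reporter light.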
A short description of test [10]: StAR promoter reporter inhibition counter-screen, dose response, counter-screen for LRH-1 inverse agonist project, cell-based, luminescence, luciferase reporter (AID 651969). It counts as functional.
For the next test, the target named is Beta Lactamase (Pseudomonas aeruginosa, UniProt Q932Y6). Kind of test: beta-lactamase reporter inhibitor potency, dose response, artefact control for NOD2-RIPK2 interaction inhibitor project, BLA reporter cells, FRET fluorescence (AID 651552). It counts as functional, cell-based.
The nature of test [11]: Shn3 3'UTR reporter inhibitors, dose response, cell-based, Clone20 osteoblasts, firefly luciferase, cherry-picked (AID 624132).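 Further: firefly luciferase luminescence from reporter carrying the Shn3 3'UTR in osteoblasts.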 It counts as functional.
Test [12] is described as follows: HepG2 cell cytotoxicity, dose response, cytotoxicity control for Shn3 inhibitor project, CellTiter-Glo, cherry-picked (AID 624134). It counts as functional, cell-based. (Cellular ATP, detected with luciferase, serves as a proxy for viable cell number.)
The nature of test [13]: control 3'UTR Renilla luciferase suppression, dose response, counter-screen for Shn3 inhibitor project, cell-based, Clone20-Shn3RL, cherry-picked (AID 624133). It counts as functional.
Test [14] is described as follows: Fluorescence-based cell-based high throughput dose response assay for inhibitors of the interaction of nucleotide-binding oligomerization domain containing 2 (NOD2) and the receptor-interacting serine-threonine kinase 2 (RIPK2). It counts as functional. The note with it: Homo sapiens.
Test [15] deals with ADP-ribosylation factor GTPase-activating protein 1 (Rattus norvegicus, UniProt Q62848). Description: Fluorescence polarization-based biochemical high throughput dose response screening assay to identify inhibitors of ADP-ribosylation factor GTPase activating protein 1 (ARFGAP1). Format: functional.
The target in test [16] is T2, Probable nicotinate-nucleotide adenylyltransferase (Staphylococcus aureus (strain N315), UniProt P65502). Format: functional, Staphylococcus aureus subsp. aureus N315.
For test [17], the target named is T2, Probable nicotinate-nucleotide adenylyltransferase. It counts as functional, Staphylococcus aureus subsp. aureus N315. The note with it: read-out: IC50_Mean.
Test [18] is described as follows: microbe, parasite or virus in culture. It counts as functional. The note with it: Mycobacterium tuberculosis.
In test [19] the target is T3, Sentrin-specific protease 1 (Homo sapiens, UniProt Q9P0U3). Description: potency of human SENP1 inhibitors, dose response, biochemical, kinetic FRET (AID 651697). It counts as functional. The note with it: read-out: IC50_Mean.
Test [20] is described as follows: HeLa cell cytotoxicity, dose response, cytotoxicity control for MgcRacGAP inhibitor project (AID 624300). It counts as functional.
The target of test [21] is T3, Sentrin-specific protease 1. Description: Dose response confirmation of small molecule inhibitors of the catalytic domain of the SUMO protease, SENP1 in a FRET assay. Format: functional. The note with it: read-out: IC50_Mean.
The target in test [22] is T4, Rac GTPase-activating protein 1 (Homo sapiens, UniProt Q9H0H5).
T4 sequence (Q9H0H5 whole entry): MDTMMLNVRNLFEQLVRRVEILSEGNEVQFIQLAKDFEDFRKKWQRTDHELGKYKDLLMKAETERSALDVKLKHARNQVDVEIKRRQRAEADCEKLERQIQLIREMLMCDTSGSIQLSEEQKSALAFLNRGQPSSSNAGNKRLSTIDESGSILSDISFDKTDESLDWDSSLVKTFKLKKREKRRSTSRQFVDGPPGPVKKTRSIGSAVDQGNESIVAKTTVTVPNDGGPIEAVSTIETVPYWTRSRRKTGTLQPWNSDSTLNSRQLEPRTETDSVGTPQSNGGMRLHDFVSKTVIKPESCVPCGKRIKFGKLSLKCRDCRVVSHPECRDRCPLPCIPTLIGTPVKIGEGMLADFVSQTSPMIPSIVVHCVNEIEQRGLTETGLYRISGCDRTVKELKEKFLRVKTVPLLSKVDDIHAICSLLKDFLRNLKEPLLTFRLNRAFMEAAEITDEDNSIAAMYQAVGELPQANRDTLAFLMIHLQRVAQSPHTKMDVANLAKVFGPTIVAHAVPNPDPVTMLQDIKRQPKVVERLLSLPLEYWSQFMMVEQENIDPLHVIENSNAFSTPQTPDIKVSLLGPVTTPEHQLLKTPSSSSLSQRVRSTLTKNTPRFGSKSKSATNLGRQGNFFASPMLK
Description: MgcRacGAP GTPase-activating activity inhibitors, confirmation, biochemical, ADP Hunter fluorescence, primary and confirmatory (AID 624330). Format: functional.

Test [23] has as its target T5, ATP-dependent translocase ABCB1 (Homo sapiens, UniProt P08183). Description: ABCB1 efflux inhibitor potency, dose response, Jurkat-DNR cells, JC-1, flow cytometry, set 2 (AID 504569).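 Further: potency of pump inhibitors that raise cellular JC-1 green fluorescence up to the nicardipine level.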 It counts as functional. The note with it: read-out: EC50_MICROM_.
Test [24] concerns the target T5, ATP-dependent translocase ABCB1. Kind of test: ABCG2 efflux pump inhibitor potency, dose response, Ig-MXP3 cells, JC-1, flow cytometry, set 2 (AID 504566).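 Further: flow cytometry median green fluorescence of retained JC-1 dye; potency of efflux pump inhibition measured as rising substrate retention.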 It counts as functional. The note with it: read-out: EC50_MICROM_.
Test [25] can be described thus: CRF-BP/CRF-R2 complex antagonists, dose response, cell-based, uHTS hits, 384-well (AID 651639). It counts as functional, Homo sapiens. The note with it: read-out: IC50_Mean.
The target of test [26] is T6, Corticotropin-releasing factor receptor 2/Corticotropin-releasing factor-binding protein (Homo sapiens, UniProt P24387+Q13324).
T6 sequence (Q13324 whole entry): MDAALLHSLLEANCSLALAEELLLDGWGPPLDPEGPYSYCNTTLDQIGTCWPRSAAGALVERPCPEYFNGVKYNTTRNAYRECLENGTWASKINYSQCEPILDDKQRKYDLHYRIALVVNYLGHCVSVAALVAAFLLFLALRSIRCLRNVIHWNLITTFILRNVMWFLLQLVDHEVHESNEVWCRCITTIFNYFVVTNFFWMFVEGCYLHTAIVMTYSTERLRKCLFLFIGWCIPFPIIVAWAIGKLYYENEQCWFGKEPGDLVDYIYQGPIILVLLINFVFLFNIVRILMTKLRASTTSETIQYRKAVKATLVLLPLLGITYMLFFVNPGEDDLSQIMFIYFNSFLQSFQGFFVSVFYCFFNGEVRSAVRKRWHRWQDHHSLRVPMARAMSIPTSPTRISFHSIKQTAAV
T6 sequence (P24387 whole entry): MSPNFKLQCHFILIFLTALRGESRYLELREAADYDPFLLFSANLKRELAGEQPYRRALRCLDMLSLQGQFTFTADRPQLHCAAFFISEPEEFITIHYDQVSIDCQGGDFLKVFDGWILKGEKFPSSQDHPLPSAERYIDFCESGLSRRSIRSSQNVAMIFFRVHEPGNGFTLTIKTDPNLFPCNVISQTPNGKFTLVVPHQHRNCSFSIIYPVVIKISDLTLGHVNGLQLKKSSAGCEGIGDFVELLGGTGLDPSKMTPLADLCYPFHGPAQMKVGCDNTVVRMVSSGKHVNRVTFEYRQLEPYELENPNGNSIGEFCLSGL
Kind of test: activators of CRF receptor 2 with binding protein – uHTS hits, confirmation (AID 602473). Format: functional. The note with it: read-out: EC50_Mean.

In test [27] the target is T6, Corticotropin-releasing factor receptor 2/Corticotropin-releasing factor-binding protein. Description: Dose Response confirmation of uHTS hits for small molecule antagonists of the CRF-binding protein and CRF-R2 receptor complex. Format: functional. The note with it: read-out: IC50_Mean.

Each structure is given as a SMILES string. The source made the active and inactive calls.

The term AC50 denotes the concentration at which the activity in the assay is half-maximal.

T3 sequence (Q9P0U3 whole entry): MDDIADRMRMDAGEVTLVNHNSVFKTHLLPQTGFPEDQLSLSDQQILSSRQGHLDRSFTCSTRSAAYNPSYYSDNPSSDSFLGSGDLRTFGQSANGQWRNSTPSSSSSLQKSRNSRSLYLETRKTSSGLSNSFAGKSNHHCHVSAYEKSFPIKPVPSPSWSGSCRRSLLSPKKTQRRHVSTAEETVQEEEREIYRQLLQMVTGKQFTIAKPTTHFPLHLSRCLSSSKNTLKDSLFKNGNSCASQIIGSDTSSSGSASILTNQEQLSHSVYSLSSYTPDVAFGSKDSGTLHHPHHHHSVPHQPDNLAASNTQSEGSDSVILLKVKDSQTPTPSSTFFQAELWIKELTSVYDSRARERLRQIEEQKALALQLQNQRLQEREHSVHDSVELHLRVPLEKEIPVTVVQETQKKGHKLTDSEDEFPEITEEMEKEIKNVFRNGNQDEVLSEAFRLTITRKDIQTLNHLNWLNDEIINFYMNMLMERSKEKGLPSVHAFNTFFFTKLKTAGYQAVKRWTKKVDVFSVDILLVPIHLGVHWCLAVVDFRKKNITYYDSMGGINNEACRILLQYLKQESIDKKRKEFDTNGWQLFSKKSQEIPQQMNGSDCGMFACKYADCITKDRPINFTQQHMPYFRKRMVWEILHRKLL
T2 sequence (P65502 whole entry): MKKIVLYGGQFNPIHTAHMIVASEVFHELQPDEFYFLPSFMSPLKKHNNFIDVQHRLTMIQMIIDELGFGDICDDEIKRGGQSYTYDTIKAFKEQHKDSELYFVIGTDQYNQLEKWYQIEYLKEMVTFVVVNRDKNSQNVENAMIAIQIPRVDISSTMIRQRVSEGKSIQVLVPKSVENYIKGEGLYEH
T5 sequence (P08183 whole entry): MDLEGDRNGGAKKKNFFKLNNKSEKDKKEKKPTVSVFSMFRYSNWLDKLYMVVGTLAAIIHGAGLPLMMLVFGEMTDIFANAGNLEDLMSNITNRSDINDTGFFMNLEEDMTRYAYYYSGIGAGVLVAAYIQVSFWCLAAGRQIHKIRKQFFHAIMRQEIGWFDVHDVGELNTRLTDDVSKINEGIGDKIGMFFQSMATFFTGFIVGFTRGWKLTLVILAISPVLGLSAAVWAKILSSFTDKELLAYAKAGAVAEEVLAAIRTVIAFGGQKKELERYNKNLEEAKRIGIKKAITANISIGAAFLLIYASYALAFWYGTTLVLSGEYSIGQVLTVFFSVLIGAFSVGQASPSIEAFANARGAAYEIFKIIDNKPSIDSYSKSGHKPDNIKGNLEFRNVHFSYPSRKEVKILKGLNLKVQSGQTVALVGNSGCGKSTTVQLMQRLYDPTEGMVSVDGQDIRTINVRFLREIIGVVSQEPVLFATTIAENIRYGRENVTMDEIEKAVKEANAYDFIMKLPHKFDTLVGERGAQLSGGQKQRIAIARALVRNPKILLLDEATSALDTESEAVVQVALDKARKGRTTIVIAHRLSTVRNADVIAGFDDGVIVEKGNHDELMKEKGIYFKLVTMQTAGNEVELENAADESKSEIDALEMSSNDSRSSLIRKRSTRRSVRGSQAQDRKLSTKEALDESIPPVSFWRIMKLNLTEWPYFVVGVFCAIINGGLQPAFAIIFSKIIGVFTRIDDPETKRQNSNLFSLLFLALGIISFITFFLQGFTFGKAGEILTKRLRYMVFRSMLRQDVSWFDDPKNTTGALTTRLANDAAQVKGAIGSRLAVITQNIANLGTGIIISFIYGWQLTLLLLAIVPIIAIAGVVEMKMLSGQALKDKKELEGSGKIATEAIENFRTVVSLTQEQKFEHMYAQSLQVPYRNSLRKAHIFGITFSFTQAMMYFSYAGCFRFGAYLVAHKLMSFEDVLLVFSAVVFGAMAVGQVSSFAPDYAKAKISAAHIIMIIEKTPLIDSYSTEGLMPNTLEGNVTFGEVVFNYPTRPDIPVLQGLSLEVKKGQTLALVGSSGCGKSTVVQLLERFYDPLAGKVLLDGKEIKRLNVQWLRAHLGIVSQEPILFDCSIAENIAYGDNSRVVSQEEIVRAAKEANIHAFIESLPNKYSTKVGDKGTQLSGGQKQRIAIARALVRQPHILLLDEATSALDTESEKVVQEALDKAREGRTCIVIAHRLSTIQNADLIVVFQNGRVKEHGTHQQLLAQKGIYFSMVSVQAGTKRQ
Sequence of ADP-ribosylation factor GTPase-activating protein 1 (Q62848 whole entry): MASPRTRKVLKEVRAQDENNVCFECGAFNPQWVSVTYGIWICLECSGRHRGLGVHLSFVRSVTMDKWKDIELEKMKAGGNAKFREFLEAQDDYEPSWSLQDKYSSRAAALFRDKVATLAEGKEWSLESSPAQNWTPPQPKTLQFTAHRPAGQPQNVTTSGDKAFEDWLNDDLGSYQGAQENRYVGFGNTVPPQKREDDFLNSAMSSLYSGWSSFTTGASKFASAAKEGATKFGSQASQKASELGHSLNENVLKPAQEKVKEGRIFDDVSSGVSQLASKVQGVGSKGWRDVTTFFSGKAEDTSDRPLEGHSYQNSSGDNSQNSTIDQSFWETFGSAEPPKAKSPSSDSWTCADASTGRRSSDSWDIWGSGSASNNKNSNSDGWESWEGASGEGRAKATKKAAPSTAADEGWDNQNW
Sequence of Nuclear receptor subfamily 5 group A member 2 (O00482 whole entry): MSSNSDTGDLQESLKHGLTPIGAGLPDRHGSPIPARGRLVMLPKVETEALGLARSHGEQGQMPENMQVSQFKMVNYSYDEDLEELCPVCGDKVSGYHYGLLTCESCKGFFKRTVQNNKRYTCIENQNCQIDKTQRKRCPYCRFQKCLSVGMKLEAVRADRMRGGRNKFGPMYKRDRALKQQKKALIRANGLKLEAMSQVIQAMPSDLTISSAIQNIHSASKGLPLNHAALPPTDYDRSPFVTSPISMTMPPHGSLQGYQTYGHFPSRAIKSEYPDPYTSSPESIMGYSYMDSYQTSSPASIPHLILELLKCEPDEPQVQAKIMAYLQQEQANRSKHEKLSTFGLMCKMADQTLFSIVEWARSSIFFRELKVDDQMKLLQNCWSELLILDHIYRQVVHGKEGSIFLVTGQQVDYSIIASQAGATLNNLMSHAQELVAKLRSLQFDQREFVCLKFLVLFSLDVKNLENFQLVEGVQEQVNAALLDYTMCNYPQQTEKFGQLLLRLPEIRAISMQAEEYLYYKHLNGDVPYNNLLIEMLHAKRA
Sequence of Beta Lactamase (Q932Y6 whole entry): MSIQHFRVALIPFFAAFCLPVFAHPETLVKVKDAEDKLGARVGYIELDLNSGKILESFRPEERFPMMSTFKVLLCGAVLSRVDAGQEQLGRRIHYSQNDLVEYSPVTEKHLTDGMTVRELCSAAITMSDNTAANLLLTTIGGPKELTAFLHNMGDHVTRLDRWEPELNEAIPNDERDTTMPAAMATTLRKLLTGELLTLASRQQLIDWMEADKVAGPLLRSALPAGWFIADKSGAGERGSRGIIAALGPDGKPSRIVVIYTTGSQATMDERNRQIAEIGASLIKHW
Sequence of Steroidogenic factor 1 (Q13285 whole entry): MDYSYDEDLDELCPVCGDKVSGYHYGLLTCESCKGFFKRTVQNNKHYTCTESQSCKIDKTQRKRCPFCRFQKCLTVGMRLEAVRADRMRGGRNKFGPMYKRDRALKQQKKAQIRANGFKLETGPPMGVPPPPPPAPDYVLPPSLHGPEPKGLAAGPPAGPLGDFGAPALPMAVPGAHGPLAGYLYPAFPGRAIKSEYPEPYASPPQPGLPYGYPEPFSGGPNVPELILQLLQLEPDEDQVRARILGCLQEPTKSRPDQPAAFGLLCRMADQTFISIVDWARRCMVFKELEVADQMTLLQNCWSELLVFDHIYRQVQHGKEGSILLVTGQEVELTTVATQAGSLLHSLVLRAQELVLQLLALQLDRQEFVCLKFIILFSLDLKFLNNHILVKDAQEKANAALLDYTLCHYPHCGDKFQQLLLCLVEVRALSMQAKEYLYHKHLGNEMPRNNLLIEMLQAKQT
Sequence of Mitogen-activated protein kinase 10 (P53779 whole entry): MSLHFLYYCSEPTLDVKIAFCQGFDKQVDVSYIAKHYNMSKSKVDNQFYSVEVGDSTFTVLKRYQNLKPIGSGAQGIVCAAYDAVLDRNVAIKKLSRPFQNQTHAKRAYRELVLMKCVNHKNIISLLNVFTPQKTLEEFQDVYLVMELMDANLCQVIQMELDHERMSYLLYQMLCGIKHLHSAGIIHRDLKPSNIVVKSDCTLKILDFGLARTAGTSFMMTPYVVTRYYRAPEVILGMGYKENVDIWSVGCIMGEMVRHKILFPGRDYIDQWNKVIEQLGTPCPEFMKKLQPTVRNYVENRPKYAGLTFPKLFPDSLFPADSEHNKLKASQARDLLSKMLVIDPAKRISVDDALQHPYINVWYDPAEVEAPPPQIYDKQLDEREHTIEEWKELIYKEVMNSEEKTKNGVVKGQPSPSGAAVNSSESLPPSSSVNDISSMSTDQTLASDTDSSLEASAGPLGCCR

Take `Oc1ccc(Br)cc1/C=N/Nc1ccccn1`: the EC50 in [1] was 3.83 µM (inconclusive); in the test “cells [2]” it was 6.83 µM (active); in test [4], 3.19 µM (active); in test [5], 1.51 µM (active); in “cells [6]”, 22.5 µM (active). Further, the AC50 in test [3] was 1.32 µM (active); in the test with INS1, 1.98 µM (active). For the same molecule, the AbsAC35_uM in [7] came to 82.89 µM.
In the case of `O=C(NCc1cccnc1)c1cccc2c1C(=O)N(C1CCCCC1)C2`, the IC50 was 3.71 µM (active) at Steroidogenic factor 1, 27.4 µM (not active) in test [8], 17.8 µM (inactive) in test [9] and 35.9 µM (inactive) in test [10].
`C=C1C(=O)C23CCC4C(C)(C(=O)OC)CCCC4(C)C2CCC1(O)C3` (stereo unspecified): the IC50 on Beta Lactamase was 46.8 µM (inactive); in test [14] it was 1.36 µM (active). The AC50 in test [11] is 0.976 µM (active); in [12], 5.71 µM (active); in test [3], 1.27 µM (active); in test [13], 1.66 µM (active).
Regarding `Cc1cc(=O)oc2cc(OCc3ccc(C(=O)OCC(=O)Nc4ccccc4OC(F)F)cc3)ccc12`, the IC50 in test [15] was 31.3 µM (inactive).
As to `Cc1nn(-c2ccccc2)c(N2CCCC2)c1/C=N/NC(=O)c1cccc(S(=O)(=O)Nc2ccc(Cl)cc2)c1`, the figures for the IC50 in test [16] and in [17] were 8.05 µM (active) and 28.9 µM (active), respectively.
Regarding `C/C(=N\NC(=O)c1ccc(O)cc1)c1ccc2c(c1)Nc1ccccc1S2`, the CC50 in test [18] is 21.2 µM (active); in test [20], 86.9 µM (active). Further, the IC50 in test [19] is 7.06 µM (active); in [21] it was 4.61 µM (active); in test [22], 35.3 µM (active).
`Cc1cc(N2CCN(C(=O)c3ccoc3)CC2)n2nc(-c3ccc(Br)cc3)cc2n1`: the EC50 is 11.2 µM (active) in test [23] and 2.08 µM (active) in test [24].
`COc1cccc(C2CC(c3cccs3)=NN2C(=O)c2ccco2)c1O` (stereo unspecified): the IC50 was 1.51 µM (active) in [25] and 5.3 µM (active) in test [27]. Besides, the EC50 in test [26] was > 53 µM (inactive).

The record behind these values is ChEMBL document CHEMBL1201862, “PubChem BioAssay data set” (2004).
